Laboratory results as given in ChEMBL document CHEMBL1201862, “PubChem BioAssay data set” (2004).
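Each compound was tested at five concentrations against cells in 96-well plates for 48 hours. GI50: concentration for 50% inhibition of growth.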 Calls of active or inactive are those of the source. No stated cut-off is given here; in the data, active = GI50 up to about 1.1 µM and inactive = higher.

Key:
Assay in all cases: inhibition of tumour cell growth, NCI panel, 48 h
LXFL 529 = tested on: LXFL 529
M19-MEL = tested on: M19-MEL
RXF 631 = tested on: RXF 631
SNB-78 = tested on: SNB-78
XF498 = tested on: XF498
HOP-18 = tested on: HOP-18
BT-549 = tested on: BT-549
Hs-578T = tested on: Hs-578T
MDA-MB-231 = tested on: MDA-MB-231

SMILES	GI50 (LXFL 529)	GI50 (M19-MEL)	GI50 (RXF 631)	GI50 (SNB-78)	GI50 (XF498)	GI50 (HOP-18)	GI50 (BT-549)	GI50 (Hs-578T)	GI50 (MDA-MB-231)
O=[N+]([O-])c1ccc(-c2ccc(-c3csc(Nc4ccccn4)n3)o2)cc1	25.1 µM (inactive)	58.6 µM (inactive)	35.4 µM (inactive)	28.2 µM (inactive)	22.7 µM (inactive)				
CCN1C(=O)N2C(OC)c3ccccc3C(Br)C2(OC)C1=O (centres undefined)	> 100 µM (inactive)	> 100 µM (inactive)	> 100 µM (inactive)						
CCC1=C(C[C@H]2NCCc3cc(OC)c(OC)cc32)C[C@H]2c3cc(OC)c(OC)cc3CCN2C1	0.0316 µM (active)	0.0251 µM (active)	0.0412 µM (active)	0.0388 µM (active)		0.667 µM (active)			
Cn1c(=O)c2c(nc3n2C(CCl)CO3)n(C)c1=O (centres undefined)		> 100 µM (inactive)	> 100 µM (inactive)	> 100 µM (inactive)		> 100 µM (inactive)			
CC(C)(C)c1ccc(OCCOCCOc2ccc(C(C)(C)C)cc2S(N)(=O)=O)c(S(N)(=O)=O)c1		> 100 µM (inactive)	> 100 µM (inactive)	> 100 µM (inactive)		> 100 µM (inactive)			
CC12CCCC(C#N)(C1)OC2=O (centres undefined)	> 100 µM (inactive)	> 100 µM (inactive)	> 100 µM (inactive)	> 100 µM (inactive)	> 100 µM (inactive)				
C/C(CC(=O)Nc1cc(Cl)c(Cl)cc1Cl)=N\NC(N)=O	> 100 µM (inactive)	> 100 µM (inactive)	> 100 µM (inactive)		> 100 µM (inactive)				
CC(C)=CC1CC(=[N+]=[N-])C(=O)C1(C)C (centres undefined)	> 100 µM (inactive)	> 100 µM (inactive)		> 100 µM (inactive)	> 100 µM (inactive)	> 100 µM (inactive)			
COC(=O)c1c(-c2ccccc2)cc2c3cc(-c4ccccc4)c(C(=O)OC)n3c3ccccc3n12	> 100 µM (inactive)	> 100 µM (inactive)	> 100 µM (inactive)	> 100 µM (inactive)	> 100 µM (inactive)	> 100 µM (inactive)			
CC(=O)NNc1nc(C)c(C(=O)/C=C/c2cccc([N+](=O)[O-])c2)s1	> 100 µM (inactive)	> 100 µM (inactive)	> 100 µM (inactive)	> 100 µM (inactive)		> 100 µM (inactive)			
Cc1c(N)nc(C2CC(=O)N2CC(N)C(N)=O)nc1C(=O)NC(C(=O)NC(C)C(O)C(C)C(=O)NC(C(=O)NCCc1nc(-c2nc(C(=O)NCCNCC(C)O)cs2)cs1)C(C)O)C(OC1OC(CO)C(O)C(O)C1OC1OC(CO)C(O)C(OC(N)=O)C1O)c1c[nH]cn1 (centres undefined)	> 38 µM (inactive)	5.04 µM (inactive)		> 89.3 µM (inactive)	1.35 µM (inactive)	13.4 µM (inactive)	> 50 µM (inactive)	2.3 µM (inactive)	> 50 µM (inactive)
COC(=O)C1=C(\O)C[C@@]2(C)CC[C@@H](C(=O)OC)C2C/C=C\1C(=O)OC (some centres undefined)	62.2 µM (inactive)	> 100 µM (inactive)	> 100 µM (inactive)	> 100 µM (inactive)		> 100 µM (inactive)			
CCOC(=O)NC(=O)c1cn(CCCCCCOC(=O)NCCCCCCNC(=O)OCCCCCCn2cc(C(=O)NC(=O)OCC)c(=O)[nH]c2=O)c(=O)[nH]c1=O	> 100 µM (inactive)	> 100 µM (inactive)	> 100 µM (inactive)			> 100 µM (inactive)			
CCOC(=O)C1C=C2O[C@@H]3OC4(CCCCC4)O[C@@H]3C2[C@H]2C(=O)C=CC(=O)[C@@]12C(=O)OC (some centres undefined)	10.7 µM (inactive)	16 µM (inactive)	16.3 µM (inactive)	6.49 µM (inactive)	7.29 µM (inactive)	15.7 µM (inactive)			
